Broadly, the Ki is the equilibrium dissociation constant of an inhibitor or competing ligand from its target. Higher therefore signals weaker binding.

Consider two molecules from patent US8357709B2, “2,4-disubstituted pyrrolidine orexin receptor antagonists” (Merck Sharp & Dohme Corp., priority 2008, dated 2013).

One test has as its target T1, orexin-1 receptor (OX1R) (UniProt O43613).
T1 sequence (O43613 1-425): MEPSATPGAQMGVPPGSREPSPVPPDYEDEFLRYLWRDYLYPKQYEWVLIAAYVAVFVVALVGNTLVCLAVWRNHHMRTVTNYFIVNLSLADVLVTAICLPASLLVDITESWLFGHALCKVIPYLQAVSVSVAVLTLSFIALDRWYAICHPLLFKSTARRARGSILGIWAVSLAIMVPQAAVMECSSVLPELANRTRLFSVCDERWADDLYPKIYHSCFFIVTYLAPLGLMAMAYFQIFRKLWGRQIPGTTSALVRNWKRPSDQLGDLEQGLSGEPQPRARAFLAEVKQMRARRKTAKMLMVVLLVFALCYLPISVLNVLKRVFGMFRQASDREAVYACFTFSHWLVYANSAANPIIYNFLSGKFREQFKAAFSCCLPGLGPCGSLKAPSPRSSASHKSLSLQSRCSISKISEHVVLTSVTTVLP
Nature of the test: radioligand binding assay, membranes from CHO cells expressing OX1 receptor. As to conditions: CHO cell membranes. Here is the method:
(§1) The utility of the compounds in accordance with the present invention as orexin receptor OX1R and/or OX2R antagonists may be readily determined without undue experimentation by methodology well known in the art, including the “FLIPR Ca^2+ Flux Assay” (Okumura et al., Biochem. Biophys. Res. Comm. 280:976-981, 2001). In a typical experiment the OX1 and OX2 receptor antagonistic activity of the compounds of the present invention was determined in accordance with the following experimental method. […] Within the Fluorescent Imaging Plate Reader (FLIPR, Molecular Devices), test compounds are added to the plate in a volume of 25 ul, incubated for 5 min and finally 25 ul of agonist is added. Fluorescence is measured for each well at 1 second intervals for 5 minutes and the height of each fluorescence peak is compared to the height of the fluorescence peak induced by 70 pM Ala-6,12 orexin-A with buffer in place of antagonist. […] Alternatively, compound potency can be assessed by a radioligand binding assay (described in Bergman et. al. Bioorg. Med. Chem. Lett. 2008, 18, 1425-1430) in which the inhibition constant (Ki) is determined in membranes prepared from CHO cells expressing either the orexin-1 (OX1) or orexin-2 (OX2) receptor. The intrinsic orexin receptor antagonist activity of a compound which may be used in the present invention may be determined by these assays.

The target in a further test is T2, orexin-2 receptor (OX2R) (Homo sapiens, UniProt O43614).
T2 construct: expressed in transfected cells; host or cells: CHO cells (membrane preparation)
T2 sequence (O43614 1-444): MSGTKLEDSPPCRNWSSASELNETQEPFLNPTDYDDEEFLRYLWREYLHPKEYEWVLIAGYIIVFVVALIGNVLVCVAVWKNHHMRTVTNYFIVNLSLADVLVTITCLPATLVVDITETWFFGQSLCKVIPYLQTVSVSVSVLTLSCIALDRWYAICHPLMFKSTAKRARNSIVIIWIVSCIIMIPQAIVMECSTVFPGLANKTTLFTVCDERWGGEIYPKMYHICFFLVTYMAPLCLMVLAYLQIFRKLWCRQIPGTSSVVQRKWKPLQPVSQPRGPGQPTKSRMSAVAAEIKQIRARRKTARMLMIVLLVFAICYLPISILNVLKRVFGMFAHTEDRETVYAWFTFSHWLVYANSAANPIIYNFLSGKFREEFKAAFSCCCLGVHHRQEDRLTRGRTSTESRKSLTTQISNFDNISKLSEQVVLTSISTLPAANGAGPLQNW
The test is described as follows: radioligand binding assay, membranes from CHO cells expressing OX2 receptor. The note with it: CHO cell membranes. The method, then:
as §1

Regarding `Cc1ccc(-n2nccn2)c(C(=O)N2CC(COc3ccc(F)cn3)CC2C)c1` (racemic) [A-7, 5-fluoro-2-({5-methyl-1-[5-methyl-2-(2H-1,2,3-triazol-2-yl)benzoyl]pyrrolidin-3-yl}methoxy)pyridine], the Ki on orexin-1 receptor (OX1R) is 230 nM; on orexin-2 receptor (OX2R), 10 nM.
For the molecule `Cc1ccc(-n2nccn2)c(C(=O)N2CC(COc3ccc(F)cn3)CC2C)c1` (single isomer, unassigned) [A-8], the Ki at orexin-1 receptor (OX1R) was 37 nM; on orexin-2 receptor (OX2R), 5.1 nM.
